Measurements: ChEMBL document CHEMBL1147448, “New substituted triaza-benzo[cd]azulen-9-ones as promising phosphodiesterase-4 inhibitors” (Bioorg Med Chem Lett, 2004)

Columns and labels:
[1] = molecular target: Phosphodiesterase 3 (Homo sapiens, UniProt Q14432+Q13370); assay: Inhibition of phosphodiesterase 3; type: protein assay, Canis lupus familiaris
[2] = molecular target: Phosphodiesterase 1 (Homo sapiens, UniProt P54750+Q01064+Q14123); assay: Inhibition of Phosphodiesterase 1; type: protein assay, Cavia porcellus
[3] = molecular target: Phosphodiesterase 4 (Homo sapiens, UniProt P27815+Q08499+Q07343+Q08493); assay: Inhibition of phosphodiesterase 4; type: protein assay

Structure (SMILES)	IC50 [1] [µM]	IC50 [2] [µM]	IC50 [3] [µM]
COc1cc2c3c(c1)C(c1ccccc1)=NCC(=O)N3CC2	77	52	40
Nc1cc2c3c(c1)C(c1ccccc1)=N[C@@H](NC(=O)c1ccncc1)C(=O)N3CC2	–	–	0.27
COc1cc2c3c(n1)C(c1ccccc1)=NCC(=O)N3CC2	> 100	> 100	23
COc1cc2c3c(n1)C(c1ccccc1)=N[C@@H](NC(=O)c1cccnc1)C(=O)N3CC2	12	14	6.1
COc1cc2c3c(c1)C(c1ccccc1)=N[C@@H](NC(=O)c1ccncc1)C(=O)N3CC2	–	16	–
COc1cc2c3c(n1)C(c1ccccc1)=NC(NC(=O)c1cccnc1)C(=O)N3CC2 (single isomer, unassigned)	> 100	28	73
COc1cc2c3c(n1)C(c1ccccc1)=NC(NC(=O)c1cccnc1)C(=O)N3CC2 (stereo in doubt)	31	5.8	4.3
